Data: patent US6495698B1, “Binder-free compacted forms of 1,3-dihalo-5,5-dimethylhydantoins” (Albemarle Corporation, priority 2000, dated 2002)

Key:
Type in all cases: physicochemical
[1] = Tableting (pressure compaction) without binder in Sintech press; conditions: for compaction into tablets without binder (state of tablets released from the die): without any binder
Text: The commerically available 1,3-dihalo-5,5-dimethylhydantoins referred to in Example 1 were subjected to tableting operations. Five-gram samples of 1,3-dibromo-5,5-dinethylhydantoin and four-gram samples of DCDMH and BCDMH were compacted without binder in a Sintech® press (MTS Systems Corporation, Edenprairie, Minn.) equipped with a punch and die fabricated from Hastelloy® C alloy. Before manually filling the die, the interior surfaces of the die were lightly dusted with micronized polypropylene wax (MICROPRO 400 wax; Micro Powders, Incorporated, Tarrytown, N.Y.). The pressure applied was 5000 psi with no dwell time, i.e., the pressure was terminated automatically immediately upon reaching 5000 psi. The resultant tablets after removal from the die were aged for 6 days at room temperature. Thereupon the tablets were subjected to crush strength testing utilizing a Sintech® 1/S compression apparatus (MTS Systems Corporation, Edenprairie, Minnesota) equipped with Testworks software, which software is installed in the 1/S compression apparatus as supplied by MTS Systems Corporation. The apparatus includes a horizontal circular-shaped load cell interfaced with a computer, a digital micrometer also interfaced with the computer, and a vertical screw-driven piston that is disposed above the load cell and adapted to apply a downward force perpendicular to the load cell. The procedure for measuring crush strength involves measuring the thickness of the tablet with the micrometer to provide a digitized input to the computer. Next the tablet is placed on its edge on the load cell with the piston in contact with the upper edge of the tablet. Then the apparatus is activated whereby the piston commences applying a progressively increasing downward diametral force to the tablet. At the same time, the load cell continuously measures the downward force being applied to the tablet, and the input of such measurements is transmitted to the computer. […]

[2] = Particle size determination with Coulter LS Particle Size Analyzer; conditions: for Particle Size 10% is greater than / Particle Size 25% is greater than / Particle Size 50% is greater than / Particle Size 75% is greater than / Particle Size 90% is greater than / Particle Size Average: commercially available sample
Description: All particle size determinations referred to in the following Examples were determined by use of a Coulter® LS Particle Size Analyzer. The analyzer was equipped with an LS 230 small volume module and a Fraunhofer PIDS (Polarization Intensity Differential Scattering) detector switched to the “On” position. The determinations were performed at room temperature with a run time of approximately 1 minute per sample. Prior to conducting the particle size determination, and whenever the sample appeared to contain particles adhering to each other, the sample was subjected for 15±1 seconds to sonication using a Sonicor Model SC-100T apparatus to ensure that the particle size measurements were on individual particles of the product, rather than temporarily agglomerated particles.
Samples of commercially-available N,N′-dihalo-5,5-dimethylhydantoins were obtained and subjected to standard test procedures inorderto determine their average particle size using the Coulter® LS Particle Size Analyzer. Table 1 summarizes the results of these average particle size determinations, and also sets forth the data obtained in the same way on arepresentative sample of the 1,3-dibromo-5,5-dimethylhydantoin product of application Ser. No. 09/484,687. Table 2 summarizes the particle size distribution data on the commercially-available 1,3-dihalo-5,5-dimethylhydantoins. In Table 2 the following abbreviations are used: DCDMH is 1,3-dichloro-5,5-dimethylhydantoin; BCDMH is N,N′-bromochloro-5,5-dimethylhydantoin; and DBDMH is 1,3-dibromo-5,5-dimethylhydantoin.

[3] = Crush strength testing of tablets (Sintech 1/S compression apparatus); conditions: binder-free tablets compacted at 5000 psi, aged 6 days at room temperature; average of three tests
Text: The commerically available 1,3-dihalo-5,5-dimethylhydantoins referred to in Example 1 were subjected to tableting operations. Five-gram samples of 1,3-dibromo-5,5-dinethylhydantoin and four-gram samples of DCDMH and BCDMH were compacted without binder in a Sintech® press (MTS Systems Corporation, Edenprairie, Minn.) equipped with a punch and die fabricated from Hastelloy® C alloy. Before manually filling the die, the interior surfaces of the die were lightly dusted with micronized polypropylene wax (MICROPRO 400 wax; Micro Powders, Incorporated, Tarrytown, N.Y.). The pressure applied was 5000 psi with no dwell time, i.e., the pressure was terminated automatically immediately upon reaching 5000 psi. The resultant tablets after removal from the die were aged for 6 days at room temperature. Thereupon the tablets were subjected to crush strength testing utilizing a Sintech® 1/S compression apparatus (MTS Systems Corporation, Edenprairie, Minnesota) equipped with Testworks software, which software is installed in the 1/S compression apparatus as supplied by MTS Systems Corporation. […]
As used herein, including the claims, values given for crush strength are as measured using the apparatus and procedure as described in Example 2 above. […]

[4] = material compacted on small scale in manually filled dies

SMILES	Compaction ([1]; without binder, 5000 psi, no dwell time, die dusted with micronized polypropylene wax, listed as 1,3-dibromo-5,5-dimethyhydantoin)	Average Particle Size ([2]; Source: Albemarle Corporation)	Average Particle Size ([2]; Source: Aldrich Chemical Co.)	Average Particle Size ([2]; Source: Great Lakes Chemical Corporation)	Average Particle Size ([2]; Source: the product of Application No. 09/484,687)	Particle Size 10% is greater than [2]	Particle Size 25% is greater than [2]	Particle Size 50% is greater than [2]	Particle Size 75% is greater than [2]	Particle Size 90% is greater than [2]	Particle Size Average [2]	compaction into tablets without binder (state of tablets released from the die) [1]	Crush strength [3]	Average Particle Size [2, 4]
CC1(C)C(=O)N(Br)C(=O)N1Br [1,3-dibromo-5,5-dimethylhydantoin]	could not be tableted	64.5 microns	162.1 microns	45.2 microns	>500 microns									
CC1(C)C(=O)N(Cl)C(=O)N1Br [BCDMH - Aldrich, N,N′-bromochloro-5,5-dimethylhydantoin]			323.8 microns			877.9 μ	409.9 μ	173.9 μ	65.39 μ	29.35 μ	323.8 μ	intact and exhibited no visual surface imperfections	83.9 lb/in	about 324 microns
CC1(C)C(=O)N(Br)C(=O)N1Br [DBDMH - Albemarle, 1,3-dibromo-5,5-dimethylhydantoin]						162.7 μ	90.12 μ	39.21 μ	26.85 μ	17.91 μ	64.59 μ			

More lines, main results first:

Compaction ([1]; without binder, 5000 psi, no dwell time, die dusted with micronized polypropylene wax, listed as 1,3-dibromo-5,5-dimethyhydantoin)	Average Particle Size ([2]; Source: Albemarle Corporation)	Average Particle Size ([2]; Source: Aldrich Chemical Co.)	Average Particle Size ([2]; Source: Great Lakes Chemical Corporation)	Average Particle Size ([2]; Source: the product of Application No. 09/484,687)	Particle Size 10% is greater than [2]	Particle Size 25% is greater than [2]	Particle Size 50% is greater than [2]	Particle Size 75% is greater than [2]	Particle Size 90% is greater than [2]	Particle Size Average [2]	SMILES	compaction into tablets without binder (state of tablets released from the die) [1]	Crush strength [3]	Average Particle Size [2, 4]
					359.2 μ	177.6 μ	86.03 μ	47.37 μ	27.67 μ	162.1 μ	CC1(C)C(=O)N(Br)C(=O)N1Br [DBDMH - Aldrich, 1,3-dibromo-5,5-dimethylhydantoin]			
					78.76 μ	49.76 μ	34.68 μ	23.25 μ	13.90 μ	45.23 μ	CC1(C)C(=O)N(Br)C(=O)N1Br [DBDMH - Great Lakes, 1,3-dibromo-5,5-dimethylhydantoin]			
		108.1 microns			195.3 μ	134.4 μ	80.07 μ	45.99 μ	27.19 μ	108.1 μ	CC1(C)C(=O)N(Cl)C(=O)N1Cl [DCDMH - Aldrich, 1,3-dichloro-5,5-dimethylhydantoin]	intact and exhibited no visual surface imperfections	183.6 lb/in	about 108 microns
